Experimental data reported in patent US10463671B2, “Combination therapy for treating cancer” (Epizyme, Inc., priority 2013, dated 2019).
Like-named read-outs stand apart in the source and are kept apart here.

Columns and labels:
SU-DHL6 cells = test: Medium throughput combination proliferation assay (CellTiter-Glo, Chou-Talalay CI / potency shift); format: cell-based; details: SU-DHL6 (EZH2 Mutant GCB); drug combined with Compound 44
[1] = system: Sestrin 1 (SESN1), TNF and GILZ expression; details: all cell lines; 4 days
Experimental: Gene expression was normalized to array's B2M and fold change compared to DMSO was calculated using the ΔΔCt method.

H3K27 acetylation levels = details: WSU-DLCL2, OCI-LY19, RL cells; 4 days
Experimental: Acid extracted histones were analyzed by western blot for H3K27 acetylation levels.

H3K27Me3 levels = details: single agent, four day treatment
WSU-DLCL2 cells = test: Medium throughput combination proliferation assay (CellTiter-Glo, Chou-Talalay CI / potency shift)
SU-DHL-10 cells = test: as above
DOHH2 cells = test: as above
SU-DHL-5 cells = test: as above
OCI-LY19 cells = test: as above
Toledo cells = test: as above

C[C@]12C=CC(=O)C=C1CC[C@@H]1[C@@H]2[C@@H](O)C[C@@]2(C)[C@H]1CC[C@]2(O)C(=O)CO [Prednisolone]
Summary of Combinations with Compound 44 (SU-DHL6 cells): Synergy | TSC22D3/GILZ expression [1]: up-regulated | global H3K27 acetylation levels (H3K27 acetylation levels): not affected | H3K27Me3 levels (H3K27Me3 levels; OCI-LY19 cells): increase H3K27Me3 levels at higher doses | H3K27Me3 levels (H3K27Me3 levels; RL cells): no effect | H3K27Me3 levels (H3K27Me3 levels; WSU-DLCL2 cells): no effect | Summary of Combinations with Compound 44 (WSU-DLCL2 cells; WSU-DLCL2 (EZH2 Mutant GCB), drug combined with Compound 44): Synergy | growth inhibition by the drug by itself (WSU-DLCL2 cells; WSU-DLCL2 (EZH2 mutant), single agent): no sensitivity | 1/α (WSU-DLCL2 cells; WSU-DLCL2, combination with Compound 44): 9.7 | Summary of Combinations with Compound 44 (SU-DHL-10 cells; SU-DHL10 (EZH2 Mutant GCB), drug combined with Compound 44): Synergy | growth inhibition by the drug by itself (SU-DHL-10 cells; SU-DHL10 (EZH2 mutant), single agent): no sensitivity | 1/α (SU-DHL-10 cells; SU-DHL-10, combination with Compound 44): 4.2 | IC50 (SU-DHL-10 cells; read-out: Potency (IC50), SU-DHL-10 (GCB sub-type EZH2 Y646F), single agent, after 3 days of dosing): > 1 µM | Summary of Combinations with Compound 44 (DOHH2 cells; DOHH2 (EZH2 WT GCB), drug combined with Compound 44): Synergy | 1/α (DOHH2 cells; DOHH2, combination with Compound 44, data normalized to individual 6438 concentrations instead of DMSO): 9.5 | potency of the glucocorticoid agonist with addition of Compound 44 (DOHH2 cells; DOHH2 EZH2 wild-type cells): increased | IC50 (DOHH2 cells; read-out: Potency (IC50), DOHH-2 (GCB sub-type WT EZH2), single agent, after 3 days of dosing): 0.133 µM | IC50 (SU-DHL-5 cells; Homo sapiens, SU-DHL-5, 72 h, read-out: Potency (IC50)): 0.039 µM | Summary of Combinations with Compound 44 (SU-DHL-5 cells; SU-DHL5 (EZH2 WT GCB), drug combined with Compound 44): Synergy | 1/α (SU-DHL-5 cells; SU-DHL-5, combination with Compound 44): 7.6 | IC50 (OCI-LY19 cells; Homo sapiens, OCI-LY19, 72 h, read-out: Potency (IC50)): 0.047 µM | 1/α (OCI-LY19 cells; OCI-LY19, combination with Compound 44): 4.2 | Summary of Combinations with Compound 44 (OCI-LY19 cells; OCI-LY-19 (EZH2 WT GCB), drug combined with Compound 44): Synergy | Summary of Combinations with Compound 44 (Toledo cells; Toledo (EZH2 WT GCB), drug combined with Compound 44): No effect | 1/α (Toledo cells; Toledo, combination with Compound 44): No effect | IC50 (Toledo cells; read-out: Potency (IC50), Toledo, single agent, dosed for 5 days): > 1 µM
